Assays:
EPHB1 = molecular target: T1, EPHB1 (Homo sapiens, UniProt P54762); test: Large panel kinase profiling; assay type: biochemical; details: 1 μM test article, 1 mM ATP
T1 sequence (P54762 18-984): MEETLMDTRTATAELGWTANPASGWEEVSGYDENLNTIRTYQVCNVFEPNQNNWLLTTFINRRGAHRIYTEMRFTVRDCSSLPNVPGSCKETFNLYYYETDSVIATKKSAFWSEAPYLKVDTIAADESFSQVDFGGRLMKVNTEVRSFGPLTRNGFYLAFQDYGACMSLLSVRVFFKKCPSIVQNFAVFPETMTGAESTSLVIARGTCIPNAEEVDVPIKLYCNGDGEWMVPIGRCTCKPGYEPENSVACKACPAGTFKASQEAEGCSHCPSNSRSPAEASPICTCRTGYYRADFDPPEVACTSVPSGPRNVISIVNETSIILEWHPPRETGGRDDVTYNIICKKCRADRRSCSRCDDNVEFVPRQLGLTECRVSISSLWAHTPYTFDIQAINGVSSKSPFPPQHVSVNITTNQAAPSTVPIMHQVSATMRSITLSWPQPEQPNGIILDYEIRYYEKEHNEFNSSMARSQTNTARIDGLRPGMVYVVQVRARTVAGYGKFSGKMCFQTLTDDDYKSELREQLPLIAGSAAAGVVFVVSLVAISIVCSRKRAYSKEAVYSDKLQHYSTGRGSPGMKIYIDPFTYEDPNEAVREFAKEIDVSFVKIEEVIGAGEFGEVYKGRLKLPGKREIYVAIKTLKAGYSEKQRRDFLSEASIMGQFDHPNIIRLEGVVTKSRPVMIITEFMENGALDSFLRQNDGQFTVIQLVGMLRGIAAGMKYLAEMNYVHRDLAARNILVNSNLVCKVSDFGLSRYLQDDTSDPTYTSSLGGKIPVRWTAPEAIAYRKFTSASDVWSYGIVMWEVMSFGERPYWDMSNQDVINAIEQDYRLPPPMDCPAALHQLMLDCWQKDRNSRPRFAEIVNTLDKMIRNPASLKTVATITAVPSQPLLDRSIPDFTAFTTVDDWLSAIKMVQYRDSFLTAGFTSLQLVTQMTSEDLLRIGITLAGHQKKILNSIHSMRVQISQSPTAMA
Summary of the method: (§1)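 Kinase activity was followed with the PhosphoSens CSox-Sensor platform, testing compound at 1 μM in the presence of 1 mM ATP. Reactions ran at 30° C. and fluorescence (Ex 360 nm/Em 485 nm) was read kinetically every 1 min.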

CHEK1/CHK1 = molecular target: T2, CHEK1/CHK1 (Homo sapiens, UniProt O14757); test: Large panel kinase profiling; assay type: biochemical; details: 1 μM test article, 1 mM ATP
T2 construct: AssayQuant Technologies, Inc. (ran the panel)
T2 sequence (O14757 1-476): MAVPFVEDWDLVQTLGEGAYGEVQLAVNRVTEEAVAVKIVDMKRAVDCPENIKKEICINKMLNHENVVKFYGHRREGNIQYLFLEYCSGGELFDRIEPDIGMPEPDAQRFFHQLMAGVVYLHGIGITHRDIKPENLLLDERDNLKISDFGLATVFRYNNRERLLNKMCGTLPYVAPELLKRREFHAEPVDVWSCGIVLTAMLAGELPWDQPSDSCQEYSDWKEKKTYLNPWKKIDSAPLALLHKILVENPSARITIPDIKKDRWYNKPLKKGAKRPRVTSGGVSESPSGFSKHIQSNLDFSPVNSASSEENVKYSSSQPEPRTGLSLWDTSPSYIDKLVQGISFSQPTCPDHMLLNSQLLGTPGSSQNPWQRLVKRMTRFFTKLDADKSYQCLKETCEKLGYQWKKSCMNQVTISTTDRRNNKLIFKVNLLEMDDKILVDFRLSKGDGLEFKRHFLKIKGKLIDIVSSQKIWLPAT
Summary of the method: as §1

C=CC(=O)N1CCCC(c2c(F)cc(C(N)=O)c3[nH]c4c(c23)CCCCC4)C1 (single isomer, unassigned) [Compound 5-6]
inhibition at 1 µM (EPHB1): 14.5%
inhibition at 1 µM (CHEK1/CHK1): -34.8%

C=CC(=O)N1CCC[C@@H](c2c(F)cc(C(N)=O)c3[nH]c4c(c23)CC2(CC4)CC2)C1 [Compound 6-2, (S)-5-(1-acryloylpiperidin-3-yl)-6-fluoro-1,2,4,9-tetrahydrospiro[carbazole-3,1′-cyclopropane]-8-carboxamide]
inhibition at 1 µM (EPHB1): 12.4%
inhibition at 1 µM (CHEK1/CHK1): -23.1%

C=CC(=O)N1CCC[C@@H](c2c(F)cc(C(N)=O)c3[nH]c4c(c23)CCC4)C1 [Compound 10-2, (S)-8-(1-acryloylpiperidin-3-yl)-7-fluoro-1,2,3,4-tetrahydrocyclo-penta[b]indole-5-carboxamide]
inhibition at 1 µM (EPHB1): -3.1%
inhibition at 1 µM (CHEK1/CHK1): 6.8%
